Target: JNK3 (Homo sapiens, UniProt P53779)
Assay: JNK3 SPA assay (phosphorylation of GST-c-Jun)
Type: biochemical
Conditions: Scintillation proximity assay, GST-c-Jun substrate, 3.33 μM ATP, 30 minutes at room temperature
Experimental: JNK1, JNK2, JNK3—SPA Assay • 1. Compound is dissolved in DMSO to a convenient concentration and this is diluted in 10% DMSO to a five times concentrate of the desired starting concentration (frequently 1:100). • 2. 10 μl of 500 mM EDTA is added to alternative wells of the Opti-plate row, which will receive kinase reaction plus DMSO. This creates the negative control. • 3. For the JNK2 and JNK3 assay, compounds are prepared in six 2-fold dilutions with water and each concentration is tested in duplicate. For the JNK1 assay compounds are prepared in four 5-fold dilutions with water which are tested in triplicate. Controls are treated identically. • 4. 20 μl per well of each compound concentration is transferred to an Opti-plate, in duplicate. • 5. 30 μl (JNK2/3 SPA) or 50 μl (JNK1 SPA) of substrate solution (25 mM HEPES pH 7.5, 10 mM magnesium acetate with 3.33 μM ATP (JNK2/3) or 2 μM ATP (JNK1), approximately 7.5 kBq [γ-^33P] ATP, GST-c-Jun, in water) is added to each well. • 6. 50 μl (JNK2/3 SPA) or 30 μl (JNK1 SPA) of kinase solution (JNK in 25 mM HEPES pH 7.5, 10 mM Mg Acetate) is added to each well.
• 7. The plate is incubated for 30 minutes at room temperature. • 8. 100 μl of bead/stop solution is added to each well (5 mg/ml glutathione-PVT-SPA beads, 40 mM ATP in PBS). • 9. Plates are sealed and incubated for 30 minutes at room temperature, centrifuged for 10 minutes at 2500 g and counted. • 10. The IC50 values are calculated as the concentration of the compound being tested at which the phosphorylation of c-Jun is decreased to 50% of the control value.

Chain of JNK3 (P53779 whole entry): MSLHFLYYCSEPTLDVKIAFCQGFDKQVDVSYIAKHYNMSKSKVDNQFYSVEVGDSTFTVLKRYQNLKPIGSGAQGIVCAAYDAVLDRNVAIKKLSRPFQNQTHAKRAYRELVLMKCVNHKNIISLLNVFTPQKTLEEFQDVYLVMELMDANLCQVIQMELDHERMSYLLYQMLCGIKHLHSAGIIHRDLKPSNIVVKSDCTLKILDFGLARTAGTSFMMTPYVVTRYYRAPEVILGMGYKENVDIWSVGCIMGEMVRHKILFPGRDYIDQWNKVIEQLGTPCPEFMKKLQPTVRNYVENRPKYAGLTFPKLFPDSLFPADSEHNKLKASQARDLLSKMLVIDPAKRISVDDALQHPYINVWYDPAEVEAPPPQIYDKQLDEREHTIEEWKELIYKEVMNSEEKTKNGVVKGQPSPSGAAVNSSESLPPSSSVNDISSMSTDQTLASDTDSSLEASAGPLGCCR

Structure (SMILES)	IC50 [µM]
O=C(Nc1ccc2[nH]ccc2c1)c1cnc2[nH]cc(-c3ccoc3)c2c1	< 1
O=C(NCCc1c[nH]c2ccccc12)c1cnc2[nH]cc(-c3ccoc3)c2c1	< 0.5

Now from value to compound:

IC50 [µM]	Structure (SMILES)
< 0.5	O=C(c1cnc2[nH]cc(-c3ccoc3)c2c1)N1CCc2ccccc2C1
< 0.5	O=C(c1cnc2[nH]cc(-c3ccoc3)c2c1)N1CCCC1
< 0.5	CN(C)c1ccc(C(=O)c2cnc3[nH]cc(-c4cnn(C)c4)c3c2)cc1

Reference: patent publication US20110166173A1, “3,5-DISUBSTUTUTED 1H-PYRROLO [2,3-B] PYRIDINES AS JNK INHIBITORS” (Eisai Co., Ltd., priority 2004, published 2011)
